These results are taken from PMC6364417, “Kinase inhibitor library screening identifies synergistic drug combinations effective in sensitive and resistant melanoma cells” (Journal of Experimental & Clinical Cancer Research : CR, 2019).

Assay in all cases: Kinase inhibitor library screening, PrestoBlue cell viability, 1 or 10 μM, 72 h
In one test the test system is 501Mel cells (parental). The conditions noted are these: 501Mel Parental, 72 h, in %. The protocol:
(§1) After 72 h of treatment, cell viability was assessed using the PrestoBlue Cell Viability Reagent (ThermoFisher Scientific). Measurements were performed with the CLARIOstar Monochromator microplate reader (BMG Labtech).
(§2) Kinase inhibitor library screening. […] Each cell line was treated in its sensitive form (parental), and also as 2 resistant derivatives, which were made resistant to either Vemurafenib (XP) or Dabrafenib (GP). Drugs were added at 2 different concentrations, 1 and 10 μM, for 72 h and cell viability was assessed using the PrestoBlue Cell Viability assay. Results are depicted as % viability compared to untreated cells. Each cell line was analyzed at least in duplicate. […] (XLSX 95 kb)

In test [1] the test system is A375-XP cells (Vemurafenib-resistant). The following applies: A375 XP, 72 h. The procedure:
as §1, §2

Another test relates to A375 cells (parental). The conditions noted are these: A375 Parental, 72 h. The protocol:
as §1, §2

Test [2] concerns A375-GP cells (Dabrafenib-resistant). The following applies: A375 GP, 72 h. The protocol: as §1, §2
The subject of test [3] is IGR37-GP cells (Dabrafenib-resistant). The conditions noted are these: IGR37 GP, 72 h. The protocol:
as §1, §2

Test [4] deals with 501Mel-GP cells (Dabrafenib-resistant). The conditions noted are these: 501Mel GP, 72 h; for Cell viability in kinase inhibitor library screening, 501Mel GP, 1μΜ / Cell viability in kinase inhibitor library screening, 501Mel GP, 10μΜ: in %. The protocol:
as §1, §2

Test [5] deals with IGR37-XP cells (Vemurafenib-resistant). The conditions noted are these: IGR37 XP, 72 h; for Cell viability in kinase inhibitor library screening, IGR37 XP, 1μΜ: in %. The protocol: as §1, §2
The test system of test [6] is 501Mel-XP cells (Vemurafenib-resistant). The following applies: 501Mel XP, 72 h; for Cell viability in kinase inhibitor library screening, 501Mel XP, 1μΜ / Cell viability in kinase inhibitor library screening, 501Mel XP, 10μΜ: in %. The protocol:
as §1, §2

A further test concerns IGR37 cells (parental). The following applies: IGR37 Parental, 72 h. The procedure: as §1, §2

`Cc1nc(NC(=O)N2CCC[C@H]2C(N)=O)sc1-c1csc(C(C)(C)C)n1` [A66]: in the test with 501Mel cells (parental) (1μΜ), the “Cell viability in kinase inhibitor library screening, 501Mel Parental, 1μΜ” value turned out to be 94.4. Also, the “Cell viability in kinase inhibitor library screening, 501Mel Parental, 10μΜ” value in the test on 501Mel cells (parental) (10μΜ) worked out at 85.2. In addition, in [1] (1μΜ), the “Cell viability in kinase inhibitor library screening, A375 XP, 1μΜ” value worked out at 92.2. In addition, the “Cell viability in kinase inhibitor library screening, A375 XP, 10μΜ” value in [1] (10μΜ) stood at 75.9. In addition, the “Cell viability in kinase inhibitor library screening, A375 Parental, 10μΜ” value with A375 cells (parental) (10μΜ) was found to be 72.4. Further, in the test with A375 cells (parental) (1μΜ), the “Cell viability in kinase inhibitor library screening, A375 Parental, 1μΜ” value was found to be 98.3. In addition, the “Cell viability in kinase inhibitor library screening, A375 GP, 1μΜ” value in test [2] (1μΜ) is 93.1. For the same compound, the “Cell viability in kinase inhibitor library screening, A375 GP, 10μΜ” value in test [2] (10μΜ) stood at 64.2. In addition, the Cell viability in kinase inhibitor library screening, IGR37 GP, 10μΜ in [3] (10μΜ) amounted to 75%. In test [3] (1μΜ, in %), the “Cell viability in kinase inhibitor library screening, IGR37 GP, 1μΜ” value came out at 91.2. Besides, the “Cell viability in kinase inhibitor library screening, 501Mel GP, 1μΜ” value in [4] (1μΜ) turned out to be 92.2. In addition, the “Cell viability in kinase inhibitor library screening, 501Mel GP, 10μΜ” value in [4] (10μΜ) came to 75.2. Also, in [5] (10μΜ), the Cell viability in kinase inhibitor library screening, IGR37 XP, 10μΜ was 41.5%. For the same compound, the “Cell viability in kinase inhibitor library screening, IGR37 XP, 1μΜ” value in [5] (1μΜ) stood at 91.5. In addition, the “Cell viability in kinase inhibitor library screening, 501Mel XP, 1μΜ” value in test [6] turned out to be 102.8. Moreover, in test [6] (10μΜ), the “Cell viability in kinase inhibitor library screening, 501Mel XP, 10μΜ” value worked out at 65.7.
For `COc1ccc2c(Oc3ccc(NC(=O)c4c(C)n(CC(C)(C)O)n(-c5ccccc5)c4=O)nc3)ccnc2c1` [AMG458], the “cell viability (kinase inhibitor library screening)” value in test [1] (1μΜ) was 106.6%; in [1] (10μΜ) it was 96.2%; with A375 cells (parental) (10μΜ) it was 96.0%; in the test with A375 cells (parental) (1μΜ), 106.7%; in test [2] (1μΜ), 107.8%; in test [2] (10μΜ) it was 90.9%. Moreover, the “cell viability (kinase inhibitor library screening)” value worked out at 107.7% in the test on IGR37 cells (parental) (1μΜ); 97.0% in test [3] (1μΜ); 88.1% in test [3] (10μΜ); 92.9% in test [4] (1μΜ); 70.8% in test [4] (10μΜ); 94.8% in [5] (1μΜ). Besides, the “cell viability (kinase inhibitor library screening)” value in test [5] (10μΜ) turned out to be 55.7%; in test [6] (10μΜ), 51.7%.
Take `Cc1ccccc1-n1c(Cn2cnc3c(N)ncnc32)nc2cccc(C)c2c1=O` [IC-87114]: in test [1] (1μΜ), the “Cell viability in kinase inhibitor library screening, A375 XP, 1μΜ” value was 103.8. In addition, in [1] (10μΜ), the “Cell viability in kinase inhibitor library screening, A375 XP, 10μΜ” value is listed as 102.9. For the same compound, in the test on A375 cells (parental) (10μΜ), the “Cell viability in kinase inhibitor library screening, A375 Parental, 10μΜ” value was determined as 90.3. Moreover, in the test on A375 cells (parental) (1μΜ), the “Cell viability in kinase inhibitor library screening, A375 Parental, 1μΜ” value was 98.8. In addition, the “Cell viability in kinase inhibitor library screening, A375 GP, 1μΜ” value in test [2] (1μΜ) amounted to 93.5. In addition, the “Cell viability in kinase inhibitor library screening, A375 GP, 10μΜ” value in test [2] (10μΜ) was 88.8. Further, in the test on IGR37 cells (parental) (1μΜ, in %), the “Cell viability in kinase inhibitor library screening, IGR37 Parental, 1μΜ” value stood at 97.2. Moreover, the “Cell viability in kinase inhibitor library screening, IGR37 Parental, 10μΜ” value in the test with IGR37 cells (parental) (10μΜ, in %) is on record as 99.7. This compound also came in with a Cell viability in kinase inhibitor library screening, IGR37 GP, 10μΜ in test [3] (10μΜ) of 91.5%. For the same compound, the “Cell viability in kinase inhibitor library screening, 501Mel GP, 1μΜ” value in test [4] (1μΜ) was found to be 100.1. The “Cell viability in kinase inhibitor library screening, 501Mel GP, 10μΜ” value in test [4] (10μΜ) worked out at 87.1. In [5] (10μΜ), this compound showed a Cell viability in kinase inhibitor library screening, IGR37 XP, 10μΜ of 77.2%. Also, the “Cell viability in kinase inhibitor library screening, IGR37 XP, 1μΜ” value in [5] (1μΜ) is 93.3. In addition, the “Cell viability in kinase inhibitor library screening, 501Mel XP, 1μΜ” value in test [6] amounted to 98.1. Moreover, in [6] (10μΜ), the “Cell viability in kinase inhibitor library screening, 501Mel XP, 10μΜ” value came to 83.6.
